According to patent US8501752B2, “Methods for treating cancer and other pathological proliferating disorders by inhibiting mitosis using pyrrolo[2,3-d]pyrimidines” (Duquesne University of the Holy Ghost, priority 2005, dated 2013):

How the values were obtained:
A549/ATCC = experiment: NCI IVCLSP growth inhibition (SRB), A549/ATCC; type: cell-based, human; settings: 48 h drug incubation
Protocol: (§1) FIG. 1 presents nine compounds that were tested using the National Cancer Institute (NCI) 60 human tumor cell lines. The cells lines, which represent leukemia, melanoma, and cancers of the lung, colon, brain, ovary, breast, prostate, and kidney, are listed in Table 1.
(§2) Compounds 1-9 were tested according to the NCI Developmental Therapeutics Program (DTP) In Vitro Cell Line Screening Project (IVCLSP). […] Methodology for testing under the IVCLSP is as follows: The human tumor cell lines of the cancer screening panel are grown in RPMI 1640 medium containing 5% fetal bovine serum and 2 mM L-glutamine. […]
(§3) Following drug addition, the plates are incubated for an additional 48 h at 37° C., 5% CO2, 95% air, and 100% relative humidity. […] Bound stain is subsequently solubilized with 10 mM trizma base, and the absorbance is read on an automated plate reader at a wavelength of 515 nm. […] Using the seven absorbance measurements [time zero, (Tz), control growth, (C), and test growth in the presence of drug at the five concentration levels (Ti)], the percentage growth is calculated at each of the drug concentrations levels. Percentage growth inhibition is calculated as: [(Ti−Tz)/(C−Tz)]×100 for concentrations for which Ti>/=Tz [(Ti−Tz)/Tz]×100 for concentrations for which Ti<Tz.
(§4) Three dose response parameters are calculated for each experimental agent. […]

NCI-H226 = experiment: NCI IVCLSP growth inhibition (SRB), NCI-H226; type: cell-based, human; settings: 48 h drug incubation
Protocol: as §1, §2, §3, §4

UACC-62 = experiment: NCI IVCLSP growth inhibition (SRB), UACC-62; type: cell-based, human; settings: 48 h drug incubation
Protocol: as §1, §2, §3, §4

CAKI-1 = experiment: NCI IVCLSP growth inhibition (SRB), CAKI-1; type: cell-based, human; settings: 48 h drug incubation
Protocol: as §1, §2, §3, §4

HCT-15 = experiment: NCI IVCLSP growth inhibition (SRB), HCT-15; type: cell-based, human; settings: 48 h drug incubation
Protocol: as §1, §2, §3, §4

HT29 = experiment: NCI IVCLSP growth inhibition (SRB), HT29; type: cell-based, human; settings: 48 h drug incubation
Protocol: as §1, §2, §3, §4

SF-268 = experiment: NCI IVCLSP growth inhibition (SRB), SF-268; type: cell-based, human; settings: 48 h drug incubation
Protocol: as §1, §2, §3, §4

U251 = experiment: NCI IVCLSP growth inhibition (SRB), U251; type: cell-based, human; settings: 48 h drug incubation
Protocol: as §1, §2, §3, §4

LOX IMVI = experiment: NCI IVCLSP growth inhibition (SRB), LOX IMVI; type: cell-based, human; settings: 48 h drug incubation
Protocol: as §1, §2, §3, §4

TKIO = experiment: NCI IVCLSP growth inhibition (SRB), TKIO; type: cell-based, human; settings: 48 h drug incubation
Protocol: as §1, §2, §3, §4

[1] = tested on: T24 human bladder carcinoma cells; experiment: Cytotoxicity, T24 cells; type: cell-based; settings: mean ± SEM for 3 experiments
[2] = tested on: A-10 rat smooth muscle cells; experiment: Microtubule structure, indirect immunofluorescence, A-10 cells; type: cell-based; settings: 24 hours; 625 nM TAXOL, 167 nM vinblastine, 900 nM Compound 1
Protocol: Because of the morphological effects of Compound 1 on cultured cells and the NCI COMPARE analysis results described above, the effects of vinblastine, TAXOL (paclitaxel), and Compound 1 on microtubule structure were examined. For these studies, A-10 rat smooth muscle cells were used since they grow as flat monolayers that are amenable to imaging. The A-10 cells were treated for 24 hours with EtOH (control), 625 nM TAXOL (paclitaxel), 167 nM vinblastine, and 900 nM of Compound 1. Microtubules were then visualized by indirect immunofluoresence staining with B-tubulin antibodies. FIGS. 2a-d present representative fields for the control, TAXOL (paclitaxel), vinblastine, and Compound 1 (“149”), respectively. None of these compounds affected the morphology of stress fibers composed of microfilaments.

WAF1 = experiment: Western blot, WAF1 expression in MCF-7 cells; type: cell-based, human; settings: 24 hours, various concentrations
Protocol: To further characterize the cell cycle effects of Compound 1 on human tumor cells, MCF-7 cells were treated for 24 hours with various concentrations of Compound 1, vinblastine, or TAXOL (paclitaxel). Cells were then harvested, lysed, and analyzed for levels of expression of p53 and WAF1 by Western Blot analyses. […] Compound 1 is identified as “149” in these figures. […] None of these treatments affected the expression of bcl-2 or P-tubulin in the MCF-7 cells.

COc1cc(CCc2cn(Cc3ccccc3)c3nc(N)nc(C)c23)cc(OC)c1OC [Compound 1]
GI50 (A549/ATCC): 173 nM | GI50 (NCI-H226): 195 nM | GI50 (UACC-62): 39.9 nM | GI50 (CAKI-1): 366 nM | GI50 (HCT-15): 127 nM | GI50 (HT29): 281 nM | GI50 (SF-268): 669 nM | GI50 (U251): 144 nM | GI50 (LOX IMVI): 250 nM | GI50 (TKIO): 961 nM | IC50 [1]: 280 ± 100 nM | effect on microtubule structure (in words) [2]: caused dose-dependent losses of microtubules | level of expression of WAF1 (in words) (WAF1): induced the expression
